Data reported in patent publication US11420969B2 (Exonate Limited, priority 2017, dated 2022).
Where two headings read alike, the source gives them in different places.

What was measured:
CYP3A4 = biological target: T1, CYP3A4 (Homo sapiens, UniProt P08684); experiment: CYP inhibition assay, human liver microsomes, substrate midazolam; type: in vitro ADME; details: human liver microsomes, 10 min incubation, LC-MS/MS; read-out: CYP Inhibition Activity (IC50/nM) CYP3A4
T1 construct: from tissue; host or cells: human liver microsomes
T1 sequence (P08684 whole entry): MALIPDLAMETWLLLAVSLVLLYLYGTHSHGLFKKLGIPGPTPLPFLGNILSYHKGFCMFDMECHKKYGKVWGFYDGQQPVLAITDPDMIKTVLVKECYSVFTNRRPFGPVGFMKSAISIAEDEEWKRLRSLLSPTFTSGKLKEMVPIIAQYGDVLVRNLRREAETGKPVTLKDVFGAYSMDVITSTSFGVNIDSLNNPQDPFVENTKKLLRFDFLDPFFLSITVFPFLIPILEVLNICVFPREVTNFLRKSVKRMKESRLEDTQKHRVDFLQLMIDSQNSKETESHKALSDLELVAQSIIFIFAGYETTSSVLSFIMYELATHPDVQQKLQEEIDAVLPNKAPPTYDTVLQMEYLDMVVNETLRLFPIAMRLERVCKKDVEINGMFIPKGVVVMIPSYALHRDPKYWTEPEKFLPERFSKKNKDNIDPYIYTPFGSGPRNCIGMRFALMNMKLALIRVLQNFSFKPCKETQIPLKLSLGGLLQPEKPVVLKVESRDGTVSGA
Summary of the method: (§1)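 Metabolite formation measured by LC-MS/MS after quench with cold acetonitrile, yielding % inhibition and IC50. Reactions ran 10 min at 37° C after NADPH addition, following 20 min pre-incubation of substrate pool and inhibitor with human liver microsomes.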

CYP1A2 = biological target: T2, CYP1A2 (Homo sapiens, UniProt P05177); experiment: CYP inhibition assay, human liver microsomes, substrate tacrine; type: in vitro ADME; details: human liver microsomes, 10 min incubation, LC-MS/MS; read-out: CYP Inhibition Activity (IC50/nM) CYP1A2
T2 construct: from tissue; host or cells: human liver microsomes
T2 sequence (P05177 1-516): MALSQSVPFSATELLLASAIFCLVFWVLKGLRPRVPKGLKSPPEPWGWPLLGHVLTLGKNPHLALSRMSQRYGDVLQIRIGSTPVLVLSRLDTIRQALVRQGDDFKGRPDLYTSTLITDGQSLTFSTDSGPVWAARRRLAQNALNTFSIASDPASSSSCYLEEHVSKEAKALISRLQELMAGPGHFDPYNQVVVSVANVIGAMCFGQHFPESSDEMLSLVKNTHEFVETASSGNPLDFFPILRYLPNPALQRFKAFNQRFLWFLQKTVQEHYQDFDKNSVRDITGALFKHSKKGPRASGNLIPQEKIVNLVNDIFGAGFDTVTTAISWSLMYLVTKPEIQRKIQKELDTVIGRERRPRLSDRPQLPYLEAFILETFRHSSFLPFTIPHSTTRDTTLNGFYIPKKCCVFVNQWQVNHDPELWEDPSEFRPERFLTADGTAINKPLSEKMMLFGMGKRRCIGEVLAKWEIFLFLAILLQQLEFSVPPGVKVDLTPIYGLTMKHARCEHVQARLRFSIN
Summary of the method: as §1

SRPK1 = SRPK1 (Homo sapiens, UniProt Q96SB4); experiment: In vitro SRPK1 assay (Kinase-Glo); type: biochemical
SRPK1, sequence (Q96SB4 whole entry, species assumed): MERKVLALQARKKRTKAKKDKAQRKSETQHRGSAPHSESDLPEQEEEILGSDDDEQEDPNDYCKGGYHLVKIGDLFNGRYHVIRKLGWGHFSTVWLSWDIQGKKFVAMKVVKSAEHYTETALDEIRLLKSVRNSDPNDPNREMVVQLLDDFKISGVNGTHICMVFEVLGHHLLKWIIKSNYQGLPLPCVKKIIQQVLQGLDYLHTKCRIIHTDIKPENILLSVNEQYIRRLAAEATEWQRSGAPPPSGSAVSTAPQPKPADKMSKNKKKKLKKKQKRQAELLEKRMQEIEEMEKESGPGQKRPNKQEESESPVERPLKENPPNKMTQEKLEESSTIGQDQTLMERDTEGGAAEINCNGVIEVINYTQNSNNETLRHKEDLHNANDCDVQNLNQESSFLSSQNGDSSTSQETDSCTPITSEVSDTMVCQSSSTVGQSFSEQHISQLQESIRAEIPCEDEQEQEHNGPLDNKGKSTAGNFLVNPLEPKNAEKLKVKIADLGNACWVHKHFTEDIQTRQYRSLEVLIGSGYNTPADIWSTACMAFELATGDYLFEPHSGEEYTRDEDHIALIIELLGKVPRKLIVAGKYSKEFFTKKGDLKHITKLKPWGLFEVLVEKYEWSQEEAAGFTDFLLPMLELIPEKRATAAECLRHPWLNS

CYP2D6 = biological target: T3, CYP2D6 (Homo sapiens, UniProt P10635); experiment: biochemical; type: in vitro ADME
T3 construct: from tissue; host or cells: human liver microsomes
T3 sequence (P10635 whole entry): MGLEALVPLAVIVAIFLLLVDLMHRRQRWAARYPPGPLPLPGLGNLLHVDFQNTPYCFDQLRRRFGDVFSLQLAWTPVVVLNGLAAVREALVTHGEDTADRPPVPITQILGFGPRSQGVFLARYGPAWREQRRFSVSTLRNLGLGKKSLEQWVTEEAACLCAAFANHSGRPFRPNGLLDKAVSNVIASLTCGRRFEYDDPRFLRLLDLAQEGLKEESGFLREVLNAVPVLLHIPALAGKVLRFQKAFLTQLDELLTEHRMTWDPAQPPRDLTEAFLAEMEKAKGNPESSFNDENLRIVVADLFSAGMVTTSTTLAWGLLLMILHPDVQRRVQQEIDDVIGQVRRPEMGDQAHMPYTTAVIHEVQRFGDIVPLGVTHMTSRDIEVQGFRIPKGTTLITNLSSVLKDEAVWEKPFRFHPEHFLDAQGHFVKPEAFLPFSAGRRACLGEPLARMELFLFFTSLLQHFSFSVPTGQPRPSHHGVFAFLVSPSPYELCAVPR
Summary of the method: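 Read-out is LC-MS/MS of supernatant, giving % inhibition and IC50 relative to a no-inhibitor ACN/DMSO control. Compound and substrate pool were pre-incubated 20 min at 37° C with human liver microsomes (working stock 0.253 mg/mL) before a 10 min NADPH-driven reaction, quenched with cold ACN.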

CYP2C9 = biological target: T4, CYP2C9 (Homo sapiens, UniProt P11712); experiment: CYP inhibition assay, human liver microsomes, substrate diclofenac; type: in vitro ADME
T4 construct: from tissue; host or cells: human liver microsomes
T4 sequence (P11712 whole entry): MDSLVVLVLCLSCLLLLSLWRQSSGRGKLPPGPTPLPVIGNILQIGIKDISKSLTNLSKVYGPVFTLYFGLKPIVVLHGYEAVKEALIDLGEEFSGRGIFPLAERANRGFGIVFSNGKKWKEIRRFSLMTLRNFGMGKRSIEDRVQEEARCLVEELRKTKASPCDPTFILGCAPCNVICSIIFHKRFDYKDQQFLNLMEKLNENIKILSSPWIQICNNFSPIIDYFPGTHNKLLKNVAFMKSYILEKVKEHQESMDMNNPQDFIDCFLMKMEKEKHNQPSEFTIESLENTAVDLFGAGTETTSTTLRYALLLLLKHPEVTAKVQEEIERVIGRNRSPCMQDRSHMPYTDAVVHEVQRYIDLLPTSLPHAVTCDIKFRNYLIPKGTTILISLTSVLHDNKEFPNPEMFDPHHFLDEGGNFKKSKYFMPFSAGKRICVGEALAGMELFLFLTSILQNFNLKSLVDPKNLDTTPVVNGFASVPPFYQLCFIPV
Summary of the method: as §1

CYP2C19 = biological target: T5, CYP2C19 (Homo sapiens, UniProt P33261); experiment: CYP inhibition assay, human liver microsomes, substrate S-mephenytoin; type: in vitro ADME; details: human liver microsomes, 10 min incubation, LC-MS/MS; read-out: CYP Inhibition Activity (IC50/nM) CYP2C19
T5 construct: from tissue; host or cells: human liver microsomes
T5 sequence (P33261 whole entry): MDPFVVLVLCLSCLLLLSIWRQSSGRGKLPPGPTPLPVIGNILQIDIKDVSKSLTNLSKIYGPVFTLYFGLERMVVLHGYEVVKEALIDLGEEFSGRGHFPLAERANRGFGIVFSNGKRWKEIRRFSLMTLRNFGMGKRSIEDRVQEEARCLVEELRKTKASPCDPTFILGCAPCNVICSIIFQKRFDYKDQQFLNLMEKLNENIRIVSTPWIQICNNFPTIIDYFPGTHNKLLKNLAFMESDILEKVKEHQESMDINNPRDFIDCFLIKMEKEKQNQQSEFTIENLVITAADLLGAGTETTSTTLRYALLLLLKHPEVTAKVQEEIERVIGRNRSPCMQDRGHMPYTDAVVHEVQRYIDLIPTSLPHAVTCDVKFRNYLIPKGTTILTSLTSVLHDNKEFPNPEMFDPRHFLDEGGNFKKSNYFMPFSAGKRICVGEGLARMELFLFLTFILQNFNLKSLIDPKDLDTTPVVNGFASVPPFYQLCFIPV
Summary of the method: as §1

[1] = human liver microsomes, 10 min incubation, LC-MS/MS, read-out: CYP Inhibition Activity (IC50/nM) CYP2C9

SMILES: CNCC1(C)CCN(c2ccc(C(F)(F)F)cc2NC(=O)c2ccc(C3CCOCC3)o2)CC1 [Example 82, N-(2-(4-methyl-4-((methylamino)methyl)-piperidin-1-yl)-5-(trifluoromethyl)phenyl)-5-(tetrahydro-2H-pyran-4-yl)furan-2-carboxamide]
- IC50 (CYP3A4): 6200 nM
- IC50 (CYP1A2): > 30000 nM
- IC50 (SRPK1): 35 nM
- IC50 (CYP2D6): 2800 nM
- IC50 (CYP2C9; [1]): > 30000 nM
- IC50 (CYP2C19): 29200 nM

SMILES: CN(C)CC1(C)CCN(c2ccc(C(F)(F)F)cc2NC(=O)c2ccc(C3CCOCC3)o2)CC1 [Example 83, N-(2-(4-((dimethylamino)methyl)-4-methyl-piperidin-1-yl)-5-(trifluoromethyl)phenyl)-5-(tetrahydro-2H-pyran-4-yl)furan-2-carboxamide]
- IC50 (CYP3A4): 21000 nM
- IC50 (CYP1A2): > 30000 nM
- IC50 (SRPK1): 3.2 nM
- IC50 (CYP2D6): 3200 nM
- IC50 (CYP2C9; [1]): 24300 nM
- IC50 (CYP2C19): > 30000 nM

SMILES: CN(C)C(=O)C1(C)CCN(c2ccc(Cl)cc2NC(=O)c2ccc(C3CCOCC3)o2)CC1 [Example 84, 1-(4-chloro-2-(5-(tetrahydro-2H-pyran-4-yl)furan-2-carboxamido)phenyl)-N,N,4-trimethyl-piperidine-4-carboxamide]
- IC50 (CYP3A4): 2200 nM
- IC50 (CYP1A2): > 30000 nM
- IC50 (SRPK1): 23 nM
- IC50 (CYP2D6): 12400 nM
- IC50 (CYP2C9; [1]): 600 nM
- IC50 (CYP2C19): 8000 nM

SMILES: COc1ccc(N2CCC(C)(C(=O)N(C)C)CC2)c(NC(=O)c2ccc(C3CCOCC3)o2)c1 [Example 85, 1-(4-methoxy-2-(5-(tetrahydro-2H-pyran-4-yl)furan-2-carboxamido)phenyl)-N,N,4-trimethyl-piperidine-4-carboxamide]
- IC50 (CYP3A4): 20700 nM
- IC50 (CYP1A2): > 30000 nM
- IC50 (SRPK1): 43 nM
- IC50 (CYP2D6): > 30000 nM
- IC50 (CYP2C9; [1]): 800 nM
- IC50 (CYP2C19): 21700 nM

SMILES: CN(C)C(=O)C1(C)CCN(c2ccc(C3CC3)cc2NC(=O)c2ccc(C3CCOCC3)o2)CC1 [Example 86, 1-(4-cyclopropyl-2-(5-(tetrahydro-2H-pyran-4-yl)furan-2-carboxamido)phenyl)-N,N,4-trimethyl-piperidine-4-carboxamide]
- IC50 (CYP3A4): 1100 nM
- IC50 (CYP1A2): > 30000 nM
- IC50 (SRPK1): 9 nM
- IC50 (CYP2D6): 19200 nM
- IC50 (CYP2C9; [1]): 200 nM
- IC50 (CYP2C19): 4100 nM

SMILES: Cc1ccc(N2CCC(C)(C(=O)N(C)C)CC2)c(NC(=O)c2ccc(C3CCOCC3)o2)c1 [Example 87, N,N,4-trimethyl-1-(4-methyl-2-(5-(tetrahydro-2H-pyran-4-yl)furan-2-carboxamido)phenyl)piperidine-4-carboxamide]
- IC50 (CYP3A4): 5900 nM
- IC50 (CYP1A2): > 30000 nM
- IC50 (SRPK1): 27 nM
- IC50 (CYP2D6): > 30000 nM
- IC50 (CYP2C9; [1]): 800 nM
- IC50 (CYP2C19): 14300 nM

SMILES: CC1(C(=O)N2CCCC2)CCN(c2ccc(C(F)(F)F)cc2NC(=O)c2ccc(C3CCOCC3)o2)CC1 [Example 88, N-(2-(4-methyl-4-(pyrrolidine-1-carbonyl)-piperidin-1-yl)-5-(trifluoromethyl)-phenyl)-5-(tetrahydro-2H-pyran-4-yl)furan-2-carboxamide]
- IC50 (CYP3A4): 1000 nM
- IC50 (CYP1A2): > 30000 nM
- IC50 (SRPK1): 11 nM
- IC50 (CYP2D6): 10300 nM
- IC50 (CYP2C9; [1]): 300 nM
- IC50 (CYP2C19): 4600 nM

SMILES: CC1(C(=O)N2CCCCC2)CCN(c2ccc(C(F)(F)F)cc2NC(=O)c2ccc(C3CCOCC3)o2)CC1 [Example 89, N-(2-(4-methyl-4-(piperidine-1-carbonyl)-piperidin-1-yl)-5-(trifluoromethyl)phenyl)-5-(tetrahydro-2H-pyran-4-yl)furan-2-carboxamide]
- IC50 (CYP3A4): 2800 nM
- IC50 (CYP1A2): > 30000 nM
- IC50 (SRPK1): 14 nM
- IC50 (CYP2D6): 18900 nM
- IC50 (CYP2C9; [1]): 2500 nM
- IC50 (CYP2C19): 14100 nM

SMILES: CC1(C(=O)N2CCOCC2)CCN(c2ccc(C(F)(F)F)cc2NC(=O)c2ccc(C3CCOCC3)o2)CC1 [Example 90, N-(2-(4-methyl-4-(morpholine-4-carbonyl)-piperidin-1-yl)-5-(trifluoromethyl)phenyl)-5-(tetrahydro-2H-pyran-4-yl)furan-2-carboxamide]
- IC50 (CYP3A4): 2800 nM
- IC50 (CYP1A2): > 30000 nM
- IC50 (SRPK1): 5.5 nM
- IC50 (CYP2D6): 11600 nM
- IC50 (CYP2C9; [1]): 1000 nM
- IC50 (CYP2C19): 10300 nM

SMILES: CN(C)CC1(C)CCN(c2ccc(Cl)cc2NC(=O)c2ccc(C3CCOCC3)o2)CC1 [Example 91, N-(5-chloro-2-(4-((dimethylamino)methyl)-4-methylpiperidin-1-yl)phenyl)-5-(tetrahydro-2H-pyran-4-yl)furan-2-carboxamide]
- IC50 (CYP3A4): 19000 nM
- IC50 (CYP1A2): > 30000 nM
- IC50 (SRPK1): 41 nM
- IC50 (CYP2D6): 200 nM
- IC50 (CYP2C9; [1]): 14900 nM
- IC50 (CYP2C19): 20800 nM

SMILES: COc1ccc(N2CCC(C)(CN(C)C)CC2)c(NC(=O)c2ccc(C3CCOCC3)o2)c1 [Example 92, N-(2-(4-((dimethylamino)methyl)-4-methyl-piperidin-1-yl)-5-methoxyphenyl)-5-(tetrahydro-2H-pyran-4-yl)furan-2-carboxamide]
- IC50 (CYP3A4): > 30000 nM
- IC50 (CYP1A2): > 30000 nM
- IC50 (SRPK1): 150 nM
- IC50 (CYP2D6): 1500 nM
- IC50 (CYP2C9; [1]): 10400 nM
- IC50 (CYP2C19): > 30000 nM

SMILES: CN(C)CC1(C)CCN(c2ccc(C3CC3)cc2NC(=O)c2ccc(C3CCOCC3)o2)CC1 [Example 93, N-(5-cyclopropyl-2-(4-((dimethylamino)methyl)-4-methylpiperidin-1-yl)phenyl)-5-(tetrahydro-2H-pyran-4-yl)furan-2-carboxamide]
- IC50 (CYP3A4): 29500 nM
- IC50 (CYP1A2): > 30000 nM
- IC50 (SRPK1): 28 nM
- IC50 (CYP2D6): 24300 nM
- IC50 (CYP2C9; [1]): 13700 nM
- IC50 (CYP2C19): 25700 nM

SMILES: Cc1ccc(N2CCC(C)(CN(C)C)CC2)c(NC(=O)c2ccc(C3CCOCC3)o2)c1 [Example 94, N-(2-(4-((dimethylamino)methyl)-4-methyl-piperidin-1-yl)-5-methylphenyl)-5-(tetrahydro-2H-pyran-4-yl)furan-2-carboxamide]
- IC50 (CYP3A4): 23100 nM
- IC50 (CYP1A2): > 30000 nM
- IC50 (SRPK1): 167 nM
- IC50 (CYP2D6): 300 nM
- IC50 (CYP2C9; [1]): 17200 nM
- IC50 (CYP2C19): 25100 nM

SMILES: CC1(CN2CCCC2)CCN(c2ccc(C(F)(F)F)cc2NC(=O)c2ccc(C3CCOCC3)o2)CC1 [Example 95, N-(2-(4-methyl-4-(pyrrolidin-1-ylmethyl)piperidin-1-yl)-5-(trifluoromethyl)phenyl)-5-(tetrahydro-2H-pyran-4-yl)furan-2-carboxamide]
- IC50 (CYP3A4): 7300 nM
- IC50 (CYP1A2): > 30000 nM
- IC50 (SRPK1): 24 nM
- IC50 (CYP2D6): 400 nM
- IC50 (CYP2C9; [1]): 10100 nM
- IC50 (CYP2C19): > 30000 nM

SMILES: CC1(CN2CCCCC2)CCN(c2ccc(C(F)(F)F)cc2NC(=O)c2ccc(C3CCOCC3)o2)CC1 [Example 96, N-(2-(4-methyl-4-(piperidin-1-ylmethyl)piperidin-1-yl)-5-(trifluoromethyl)phenyl)-5-(tetrahydro-2H-pyran-4-yl)furan-2-carboxamide]
- IC50 (CYP3A4): 7700 nM
- IC50 (CYP1A2): > 30000 nM
- IC50 (SRPK1): 49 nM
- IC50 (CYP2D6): 200 nM
- IC50 (CYP2C9; [1]): 17800 nM
- IC50 (CYP2C19): > 30000 nM

SMILES: CC1(CN2CCOCC2)CCN(c2ccc(C(F)(F)F)cc2NC(=O)c2ccc(C3CCOCC3)o2)CC1 [Example 97, N-(2-(4-methyl-4-(morpholinomethyl)piperidin-1-yl)-5-(trifluoromethyl)phenyl)-5-(tetrahydro-2H-pyran-4-yl)furan-2-carboxamide]
- IC50 (CYP3A4): 9400 nM
- IC50 (CYP1A2): > 30000 nM
- IC50 (SRPK1): 6 nM
- IC50 (CYP2D6): 8100 nM
- IC50 (CYP2C9; [1]): 200 nM
- IC50 (CYP2C19): 2700 nM

SMILES: O=C(Nc1cc(C(F)(F)F)ccc1N1CCC2(CCCC2)CC1)c1ccc(C2CCOCC2)o1 [Example 98, N-(2-(8-azaspirol4.51decan-8-yl)-5-(trifluoromethyl)phenyl)-5-(tetrahydro-2H-pyran-4-yl)furan-2-carboxamide]
- IC50 (CYP3A4): > 30000 nM
- IC50 (CYP1A2): > 30000 nM
- IC50 (SRPK1): 7.5 nM
- IC50 (CYP2D6; human liver microsomes, 10 min incubation, LC-MS/MS, read-out: CYP Inhibition Activity (IC50/nM) CYP2D6): > 30000 nM
- IC50 (CYP2C9): 18600 nM
- IC50 (CYP2C19): > 30000 nM

SMILES: CN1CCC2(CCN(c3ccc(C(F)(F)F)cc3NC(=O)c3ccc(C4CCOCC4)o3)CC2)C1 [Example 99, N-(2-(2-methyl-2,8-diazaspiro[4.5]decan-8-yl)-5-(trifluoromethyl)phenyl)-5-(tetrahydro-2H-pyran-4-yl)furan-2-carboxamide]
- IC50 (CYP3A4): 18000 nM
- IC50 (CYP1A2): > 30000 nM
- IC50 (SRPK1): 4.8 nM
- IC50 (CYP2D6): 3000 nM
- IC50 (CYP2C9; [1]): > 30000 nM
- IC50 (CYP2C19): > 30000 nM
